Measurements taken from patent US8729017B2 (priority 2011, dated 2014).
Read-outs that look alike come from different tables or passages of the source. Numbered stars: 1 amine (or outer) side, 2 acyl side, 3 side chain; on linkers, the order of the positions; unused ones are H or OH. Square brackets hold non-standard residues; d marks the D form. Side chains are listed from the residue outwards. Ends that are not written are not given here. Peptide text beside a SMILES is read from it. * marks the point of attachment. γGlu = O=C(O)[C@H](CCC(=O)[*:2])N[*:1]; Palmitoyl = CCCCCCCCCCCCCCCC(=O)*; Aib = CC(C)(N)C(=O)O

How the values were obtained:
Assay type in all cases: cell-based
glucagon receptor = molecular target: T1, glucagon receptor (Homo sapiens, UniProt P47871); assay: cAMP induction, firefly luciferase reporter assay in HEK293 cells co-transfected with the glucagon receptor; conditions: HEK293 cells, cAMP-responsive luciferase reporter, 5 hours incubation
T1 construct: expressed in transfected cells; host or cells: HEK293
Experimental: (§1) The ability of each peptide to induce cAMP was measured in a firefly luciferase-based reporter assay. […] At the end of the incubation, 100 μL of LucLite luminescence substrate reagent (Perkin Elmer, Wellesley, Mass.) were added to each well. […] In some instances, the in vitro agonist activity at the GIP receptor was also tested.

GLP-1 receptor = molecular target: T2, GLP-1 receptor (Homo sapiens, UniProt P43220); assay: cAMP induction, firefly luciferase reporter assay in HEK293 cells co-transfected with the GLP-1 receptor; conditions: HEK293 cells, cAMP-responsive luciferase reporter, 5 hours incubation
T2 construct: expressed in transfected cells; host or cells: HEK293
Experimental: as §1

GIP receptor = molecular target: T3, GIP receptor (Homo sapiens, UniProt P48546); assay: in vitro agonist activity at the GIP receptor (cAMP luciferase reporter, HEK293 cells); conditions: in vitro agonist activity; for EC50: read-out: EC50 (nM) at GIP receptor
T3 construct: expressed in transfected cells; host or cells: HEK293
T3 sequence (P48546 22-466): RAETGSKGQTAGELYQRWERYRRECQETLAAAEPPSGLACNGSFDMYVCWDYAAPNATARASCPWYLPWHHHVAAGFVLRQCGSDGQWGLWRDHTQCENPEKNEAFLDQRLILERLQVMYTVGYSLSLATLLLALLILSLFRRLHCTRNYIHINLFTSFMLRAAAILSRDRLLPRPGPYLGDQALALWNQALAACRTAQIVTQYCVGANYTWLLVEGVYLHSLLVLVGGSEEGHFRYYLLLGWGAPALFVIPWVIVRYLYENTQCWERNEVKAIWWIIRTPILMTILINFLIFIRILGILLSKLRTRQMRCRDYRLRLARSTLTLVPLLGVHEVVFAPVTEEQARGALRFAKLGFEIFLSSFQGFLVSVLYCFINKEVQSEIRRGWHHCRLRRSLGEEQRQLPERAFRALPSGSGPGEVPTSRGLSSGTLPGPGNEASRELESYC
Experimental: as §1, with “It is understood that a lower EC50 indicates higher activity or potency at the receptor. […] The” for “The”

[1] = read-out: EC50 (nM) at glucagon receptor
[2] = read-out: EC50 (nM) at GLP-1 receptor

T1 sequence (P47871 26-477, species assumed): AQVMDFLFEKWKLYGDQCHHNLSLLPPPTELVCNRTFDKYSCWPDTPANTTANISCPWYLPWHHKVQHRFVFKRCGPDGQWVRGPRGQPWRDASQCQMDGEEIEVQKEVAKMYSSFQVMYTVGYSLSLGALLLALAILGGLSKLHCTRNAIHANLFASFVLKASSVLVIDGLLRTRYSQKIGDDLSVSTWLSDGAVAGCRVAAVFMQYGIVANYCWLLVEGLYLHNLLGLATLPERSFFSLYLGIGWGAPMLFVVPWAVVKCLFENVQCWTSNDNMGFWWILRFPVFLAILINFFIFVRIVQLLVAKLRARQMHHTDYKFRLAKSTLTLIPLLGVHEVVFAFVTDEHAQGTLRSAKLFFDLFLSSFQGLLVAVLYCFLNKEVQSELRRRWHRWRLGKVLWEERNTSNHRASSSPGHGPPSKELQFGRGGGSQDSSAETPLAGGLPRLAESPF
T2 sequence (P43220 24-463): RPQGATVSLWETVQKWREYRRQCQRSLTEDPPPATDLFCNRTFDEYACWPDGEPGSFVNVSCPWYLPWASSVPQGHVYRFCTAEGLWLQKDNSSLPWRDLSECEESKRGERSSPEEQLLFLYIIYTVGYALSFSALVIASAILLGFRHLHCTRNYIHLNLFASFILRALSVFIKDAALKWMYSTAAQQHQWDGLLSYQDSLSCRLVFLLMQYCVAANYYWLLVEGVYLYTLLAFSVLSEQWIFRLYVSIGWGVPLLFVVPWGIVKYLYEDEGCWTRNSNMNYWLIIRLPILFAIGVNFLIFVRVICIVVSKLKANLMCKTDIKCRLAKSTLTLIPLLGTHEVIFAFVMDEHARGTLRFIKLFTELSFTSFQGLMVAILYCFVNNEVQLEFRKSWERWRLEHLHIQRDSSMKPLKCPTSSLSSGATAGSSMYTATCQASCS

CCCCCCCCCCCCCCCC(=O)N[C@@H](CCC(=O)NCCCC[C@H](NC(=O)[C@H](CC(=O)O)NC(=O)[C@H](CO)NC(=O)[C@@H](NC(=O)[C@H](Cc1ccccc1)NC(=O)[C@@H](NC(=O)CNC(=O)[C@H](CCC(N)=O)NC(=O)[C@@H](CO)NC(=O)[C@@H](N)Cc1c[nH]cn1)[C@@H](C)O)[C@@H](C)O)C(=O)N[C@@H](CO)C(=O)N[C@@H](CCCCN)C(=O)N[C@@H](Cc1ccc(O)cc1)C(=O)N[C@@H](CC(C)C)C(=O)N[C@@H](CC(=O)O)C(=O)N[C@@H](CCC(=O)O)C(=O)N[C@@H](CCC(N)=O)C(=O)N[C@@H](C)C(=O)N[C@@H](C)C(=O)N[C@@H](CCCCN)C(=O)N[C@@H](CCC(=O)O)C(=O)N[C@@H](Cc1ccccc1)C(=O)N[C@H](C(=O)N[C@@H](CS)C(=O)N[C@@H](Cc1c[nH]c2ccccc12)C(=O)N[C@@H](CC(C)C)C(=O)N[C@@H](CC(C)C)C(=O)N[C@@H](CC(=O)O)C(=O)N[C@H](C(N)=O)[C@@H](C)O)[C@@H](C)CC)C(=O)O [compound 64]
EC50 (glucagon receptor; [1]): 0.009 nM
EC50 (GLP-1 receptor; [2]): 0.012 nM

CCCCCCCCCCCCCCCC(=O)N[C@@H](CCC(=O)NCCCC[C@H](NC(=O)[C@H](CC(=O)O)NC(=O)[C@H](CO)NC(=O)[C@@H](NC(=O)[C@H](Cc1ccccc1)NC(=O)[C@@H](NC(=O)CNC(=O)[C@H](CCC(N)=O)NC(=O)[C@@H](CO)NC(=O)CCc1c[nH]cn1)[C@@H](C)O)[C@@H](C)O)C(=O)N[C@@H](CO)C(=O)N[C@@H](CCCCN)C(=O)N[C@@H](Cc1ccc(O)cc1)C(=O)N[C@@H](CC(C)C)C(=O)N[C@@H](CC(=O)O)C(=O)N[C@@H](CCC(=O)O)C(=O)N[C@@H](CCCNC(=N)N)C(=O)N[C@@H](C)C(=O)N[C@@H](C)C(=O)N[C@@H](CCC(N)=O)C(=O)N[C@@H](CC(=O)O)C(=O)N[C@@H](Cc1ccccc1)C(=O)N[C@H](C(=O)N[C@@H](CCC(N)=O)C(=O)N[C@@H](Cc1c[nH]c2ccccc12)C(=O)N[C@@H](CC(C)C)C(=O)N[C@@H](CC(C)C)C(=O)N[C@@H](CC(=O)O)C(=O)N[C@H](C(N)=O)[C@@H](C)O)C(C)C)C(=O)O [compound 20]
EC50 (glucagon receptor): 0.006 nM
EC50 (GLP-1 receptor): 0.004 nM
EC50 (GIP receptor): 1.38 nM

47 (H[Aib]QGTFTSDYSKYLDEKRA[Aib]EFVC(PEG 40 kDa)WLLDGGPSSGAPPPS-NH2) [compound 47]
EC50 (nM) at GIP receptor (GIP receptor): no activity

CCCCCCCCCCCCCCCC(=O)NCCCC[C@H](NC(=O)[C@H](CC(=O)O)NC(=O)[C@H](CO)NC(=O)[C@@H](NC(=O)[C@H](Cc1ccccc1)NC(=O)[C@@H](NC(=O)CNC(=O)[C@H](CCC(N)=O)NC(=O)C(C)(C)NC(=O)[C@@H](N)Cc1c[nH]cn1)[C@@H](C)O)[C@@H](C)O)C(=O)N[C@@H](CO)C(=O)N[C@@H](CCCCN)C(=O)N[C@@H](Cc1ccc(O)cc1)C(=O)N[C@@H](CC(C)C)C(=O)N[C@@H](CC(=O)O)C(=O)N[C@@H](CCC(=O)O)C(=O)N[C@@H](CCCNC(=N)N)C(=O)N[C@@H](CCCNC(=N)N)C(=O)N[C@@H](C)C(=O)NC(C)(C)C(=O)N[C@@H](CC(=O)O)C(=O)N[C@@H](Cc1ccccc1)C(=O)N[C@H](C(=O)N[C@@H](CCC(N)=O)C(=O)N[C@@H](Cc1c[nH]c2ccccc12)C(=O)N[C@@H](CC(C)C)C(=O)N[C@@H](CCSC)C(=O)N[C@@H](CC(N)=O)C(=O)N[C@H](C(N)=O)[C@@H](C)O)C(C)C [compound 59] (H-H[Aib]QGTFTSDK(Palmitoyl)SKYLDERRA[Aib]DFVQWLMNT-NH2)
EC50 (glucagon receptor): 0.051 nM
EC50 (GLP-1 receptor): 0.01 nM
EC50 (GIP receptor): 7.48 nM

CC[C@H](C)[C@H](NC(=O)[C@H](Cc1ccccc1)NC(=O)[C@H](CC(C)C)NC(=O)[C@H](CCCNC(=N)N)NC(=O)[C@@H](NC(=O)[C@H](C)NC(=O)[C@H](CCC(N)=O)NC(=O)[C@H](CCC(=O)O)NC(=O)[C@H](CC(=O)O)NC(=O)[C@H](CC(C)C)NC(=O)[C@H](Cc1ccc(O)cc1)NC(=O)[C@H](CCCCN)NC(=O)[C@H](CO)NC(=O)[C@H](Cc1ccc(O)cc1)NC(=O)[C@H](CC(=O)O)NC(=O)[C@H](CO)NC(=O)[C@@H](NC(=O)[C@H](Cc1ccccc1)NC(=O)[C@@H](NC(=O)CNC(=O)[C@H](CCC(N)=O)NC(=O)[C@@H](CO)NC(=O)[C@@H](N)Cc1c[nH]cn1)[C@@H](C)O)[C@@H](C)O)C(C)C)C(=O)N[C@@H](CS)C(=O)N[C@@H](Cc1c[nH]c2ccccc12)C(=O)N[C@@H](CC(C)C)C(=O)N[C@@H](CC(C)C)C(=O)N[C@@H](CC(=O)O)C(=O)NCC(=O)NCC(=O)N1CCC[C@H]1C(=O)N[C@@H](CO)C(=O)N[C@@H](CO)C(=O)NCC(=O)N[C@@H](C)C(=O)N1CCC[C@H]1C(=O)N1CCC[C@H]1C(=O)N1CCC[C@H]1C(=O)N[C@@H](CO)C(N)=O [compound 62] (H-H[dS]QGTFTSDYSKYLDEQAVRLFICWLLDGGPSSGAPPPS-NH2; N-terminus assumed)
EC50 (glucagon receptor; [1]): 0.132 nM
EC50 (GLP-1 receptor; [2]): 0.006 nM

52 (H[Aib]QGTFTSDYSKYLDEK[Aib]AKEFVC(PEG 40 kDa (thioether via iodoacetyl))WLLDT-NH2) [compound 52]
EC50 (nM) at GIP receptor (GIP receptor): no activity

CCCCCCCCCCCCCCCC(=O)N[C@@H](CCC(=O)N[C@@H](CCC(=O)NCCCC[C@H](NC(=O)[C@H](CC(=O)O)NC(=O)[C@H](CO)NC(=O)[C@@H](NC(=O)[C@H](Cc1ccccc1)NC(=O)[C@@H](NC(=O)CNC(=O)[C@H](CCC(N)=O)NC(=O)C(C)(C)NC(=O)[C@@H](N)Cc1c[nH]cn1)[C@@H](C)O)[C@@H](C)O)C(=O)N[C@@H](CO)C(=O)N[C@@H](CCCCN)C(=O)N[C@@H](Cc1ccc(O)cc1)C(=O)N[C@@H](CC(C)C)C(=O)N[C@@H](CC(=O)O)C(=O)NC(C)(C)C(=O)N[C@@H](CCCNC(=N)N)C(=O)N[C@@H](C)C(=O)N[C@@H](C)C(=O)N[C@@H](CCC(N)=O)C(=O)N[C@@H](CC(=O)O)C(=O)N[C@@H](Cc1ccccc1)C(=O)N[C@H](C(=O)N[C@@H](CCC(N)=O)C(=O)N[C@@H](Cc1c[nH]c2ccccc12)C(=O)N[C@@H](CC(C)C)C(=O)N[C@@H](CCSC)C(=O)N[C@@H](CCCCN)C(=O)N[C@H](C(=O)N[C@@H](CCCCN)C(=O)N[C@H](CCC(=O)O)C(=O)O)[C@@H](C)O)C(C)C)C(=O)O)C(=O)O [compound 37] (H-H[Aib]QGTFTSDK([γGlu-γGlu-Palmitoyl])SKYLD[Aib]RAAQDFVQWLMKTK[dE]-OH; N-terminus assumed)
EC50 (glucagon receptor): 0.018 nM
EC50 (GLP-1 receptor): 0.016 nM
EC50 (GIP receptor): 3.3 nM

51 (H[Aib]QGTFTSDYSKYLDEKRA[Aib]EFVC(PEG 40 kDa (thioether via iodoacetyl))WLL[Aib]GGPSSGAPPPS-NH2) [compound 51]
EC50 (nM) at GIP receptor (GIP receptor): no activity

38 (H[Aib]QGTFTSDYSKYLD[Aib]KRA[Aib]EFVC(PEG 40 kDa)WLLDT-NH2) [compound 38]
EC50 (nM) at GIP receptor (GIP receptor): no activity

13 (H[Aib]QGTFTSDYSKYLDEKRA[Aib]EFVC(PEG 40 kDa)WLLDT-NH2) [compound 13]
EC50 (nM) at GIP receptor (GIP receptor): no activity

46 (H[Aib]QGTFTSDYSKYLD[Aib]KRA[Aib]EFVC(PEG 40 kDa)WLLDGGPSSGAPPPS-NH2) [compound 46]
EC50 (nM) at GIP receptor (GIP receptor): no activity

41 (H[Aib]QGTFTSDYSKYLDEKRA[Aib]EFVC(PEG 40 kDa)WLL[Aib]T-NH2) [compound 41]
EC50 (nM) at GIP receptor (GIP receptor): no activity

CCCCCCCCCCCCCCCC(=O)N[C@@H](CCC(=O)NCCCC[C@H](NC(=O)[C@H](CC(=O)O)NC(=O)[C@H](CO)NC(=O)[C@@H](NC(=O)[C@H](Cc1ccccc1)NC(=O)[C@@H](NC(=O)CNC(=O)[C@H](CCC(N)=O)NC(=O)[C@@H](CO)NC(=O)[C@@H](N)Cc1c[nH]cn1)[C@@H](C)O)[C@@H](C)O)C(=O)N[C@@H](CO)C(=O)N[C@@H](CCCCN)C(=O)N[C@@H](Cc1ccc(O)cc1)C(=O)N[C@@H](CC(C)C)C(=O)N[C@@H](CC(=O)O)C(=O)N[C@@H](CCC(=O)O)C(=O)N[C@@H](CCC(N)=O)C(=O)N[C@@H](C)C(=O)N[C@@H](C)C(=O)N[C@@H](CCCCN)C(=O)N[C@@H](CCC(=O)O)C(=O)N[C@@H](Cc1ccccc1)C(=O)N[C@H](C(=O)N[C@@H](CS)C(=O)N[C@@H](Cc1c[nH]c2ccccc12)C(=O)N[C@@H](CC(C)C)C(=O)N[C@@H](CC(C)C)C(=O)N[C@@H](CC(=O)O)C(=O)N[C@H](C(=O)N[C@@H](CCC(=O)O)C(N)=O)[C@@H](C)O)[C@@H](C)CC)C(=O)O [compound 65]
EC50 (glucagon receptor; [1]): 0.028 nM
EC50 (GLP-1 receptor; [2]): 0.024 nM

45 (H[Aib]QGTFTSDYSKYLDEKRA[Aib]EFVC(PEG 40 kDa)WLLDT-OH) [compound 45]
EC50 (nM) at GIP receptor (GIP receptor): no activity
